Measurements from PubChem BioAssay (NCI).
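Following 48 hours of exposure in 96-well plates, responses at five concentrations were used to interpolate endpoints linearly. The concentration for 50% growth inhibition is given as GI50. TGI denotes the concentration required for complete inhibition of growth.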

Experiments:
Assay in all cases: DTP human tumour cell line panel, 48 h
[1] = system: HCT-116 colon
[2] = system: HT29 colon
[3] = system: MALME-3M melanoma
[4] = system: SF-539 CNS
[5] = system: SNB-19 CNS
[6] = system: SR leukemia
[7] = system: UACC-62 melanoma

Cc1ccccc1NC(=O)N/C(N)=N/c1nc(-c2cccc([N+](=O)[O-])c2)cs1
GI50 [1]: 1.58 µM
TGI [1]: 3.18 µM
GI50 [2]: 2.78 µM
TGI [2]: 64 µM
GI50 [3]: 0.943 µM
TGI [3]: 4.73 µM
GI50 [4]: 1.65 µM
TGI [4]: 3.21 µM
GI50 [5]: 3.29 µM
TGI [5]: 15.8 µM
GI50 [6]: 0.594 µM
TGI [6]: > 100 µM
GI50 [7]: 2.14 µM
TGI [7]: 12.8 µM

CC(C)=CCCC(C)c1ccc(C)c2c1OCN(CC1CCNCC1)C2 (configuration not stated)
GI50 [1]: 7.17 µM
TGI [1]: 21.7 µM
GI50 [2]: 3 µM
TGI [2]: 8.38 µM
GI50 [3]: 17.7 µM
TGI [3]: 35.3 µM
GI50 [4]: 13.7 µM
TGI [4]: 27.5 µM
GI50 [5]: 14 µM
TGI [5]: 29.4 µM
GI50 [6]: 2.79 µM
TGI [6]: 9.83 µM
GI50 [7]: 15.5 µM
TGI [7]: 29.9 µM

CCN1CCN(C(=O)[C@]23CC[C@@H](C)[C@H](C)[C@@H]2C2=CC[C@@H]4[C@@]5(C)C/C(=C/c6ccncc6)C(=O)C(C)(C)[C@@H]5CC[C@@]4(C)[C@]2(C)CC3)CC1
GI50 [2]: 1.59 µM
TGI [2]: 4.08 µM
GI50 [3]: 1.5 µM
TGI [3]: 2.83 µM
GI50 [4]: 1.73 µM
TGI [4]: 3.11 µM
GI50 [5]: 1.58 µM
TGI [5]: 2.99 µM
GI50 [6]: 1.89 µM
TGI [6]: 5.29 µM
GI50 [7]: 1.53 µM
TGI [7]: 2.87 µM

COc1cc2c(cc1OCCCOc1cc3c(cc1OC)C(=O)N1C[C@H](F)C[C@H]1C=N3)N=C[C@@H]1C[C@@H](F)CN1C2=O
GI50 [1]: 6.4 µM
TGI [1]: 42.8 µM
GI50 [2]: 17.3 µM
TGI [2]: 41.9 µM
GI50 [3]: 4.28 µM
TGI [3]: 18.1 µM
GI50 [5]: 14 µM
TGI [5]: 27.7 µM
GI50 [6]: 1.54 µM
TGI [6]: 6.38 µM
GI50 [7]: 4.79 µM
TGI [7]: 17.5 µM

COC(=O)c1s/c(=N\C(=S)N(C)C)n(-c2ccccc2)c1C(=O)OC
TGI [1]: > 100 µM
TGI [2]: > 100 µM
TGI [3]: > 100 µM
TGI [4]: > 100 µM
TGI [5]: > 100 µM
TGI [7]: > 100 µM

NOCC(=O)O
GI50 [1]: 66.8 µM
TGI [1]: > 100 µM
GI50 [2]: 58.7 µM
TGI [2]: > 100 µM
GI50 [3]: > 100 µM
TGI [3]: > 100 µM
GI50 [4]: > 100 µM
TGI [4]: > 100 µM
GI50 [5]: > 100 µM
TGI [5]: > 100 µM
GI50 [6]: > 100 µM
TGI [6]: > 100 µM
GI50 [7]: 34.4 µM
TGI [7]: > 100 µM

C=C1C(=O)O[C@H]2[C@H]1CC/C(CNC(=O)c1cc3cc(OC)ccc3[nH]1)=C\CC[C@@]1(C)O[C@@H]21
GI50 [1]: 0.645 µM
TGI [1]: 2.07 µM
GI50 [2]: 1.41 µM
TGI [2]: 4.51 µM
GI50 [3]: 1.62 µM
TGI [3]: 3.98 µM
GI50 [4]: 1.42 µM
TGI [4]: 3 µM
GI50 [5]: 7.94 µM
TGI [5]: 21.7 µM
GI50 [6]: 2.24 µM
TGI [6]: 10.1 µM
GI50 [7]: 1.52 µM
TGI [7]: 3.61 µM

COc1ccc(CN(C)c2ccc(CO)c(Cl)c2)cc1
GI50 [1]: 0.368 µM
TGI [1]: 14.2 µM
GI50 [2]: 5.5 µM
TGI [2]: > 88.3 µM
GI50 [3]: 21 µM
TGI [3]: 65.6 µM
GI50 [4]: 47.7 µM
TGI [4]: > 100 µM
GI50 [5]: 34 µM
TGI [5]: > 100 µM
GI50 [6]: 27 µM
TGI [6]: > 100 µM
GI50 [7]: 0.274 µM
TGI [7]: 2.24 µM

O=C1c2ccccc2C(=O)N1CCCSc1ccccc1
TGI [1]: > 100 µM
TGI [2]: > 100 µM
TGI [3]: > 100 µM
TGI [4]: > 100 µM
TGI [5]: > 100 µM
TGI [6]: > 100 µM
TGI [7]: > 100 µM
